Measured values published in patent publication US11045449B2, “3-(5-fluoroindolyl)-4-arylmaleimide compounds and their use in tumor treatment” (JOHANNES GUTENBERG-UNIVERSITÄT MAINZ, priority 2015, dated 2021).
Structures can show the parent of a compound that is named as a salt. Blank lines part the entries; values can stand above or below the compound they belong to.

Tests used:
[1] = metabolic conversion in rat liver microsomes; format: in vitro ADME; conditions: 40 μM compound, 37° C., pH 7.4, RP-HPLC-MS/MS
Description: In a further experiment the metabolic conversion of compounds (Ia) and (IIa) was evaluated according to the following procedure:
The test compounds were incubated in the reaction mixture given below with rat liver microsomes (Corning). For this purpose the reaction mixture (components 1-5, see below) was preincubated for 10 minutes at 37° C. The reaction was started with the addition of 10 μl of the test compound followed by incubation at 37° C. for 0-300 minutes, respectively. At each time point, 50 μl of the mixture were removed, added to 250 μl of ice cold acetonitrile and vortexed immediately. After centrifugation, the acetonitrile solution was analyzed by RP-HPLC-MS/MS system.
1. Magnesiumchloride hexahydrate 50 μl
2. Glucose-6-phosphate 50 μl
4. Glucose-6-phosphate-dehydrogenase: 10 μl
6. Compounds: 40 μM (10 μl of 4 mM solution in ethanol)
Total volume: 1000 μl in 0.1 M Trizma-buffer (pH 7.4 at 37° C.)
Acquity UPLC®-Quattro Premier XE (MS) system by Waters
Column: BEH C18, 2.1×50 mm, 1.2 μm pore diameter, Waters
Solvent A: H2O, NH4-formiate 2 mM+0.1% formic acid
Solvent B: Methanol, NH4-formiate 2 mM+0.1% formic acid
Flow regime: from 70% solvent A/30% solvent B to 100% Solvent A in 2.4 minutes, then 70% solvent A/30% solvent B for 0.8 minutes.

GSK-3β = GSK-3β (Homo sapiens, UniProt P49841); assay: KinaseProfiler protein kinase inhibition, GSK-3β; format: biochemical
Chain of GSK-3β (P49841 whole entry): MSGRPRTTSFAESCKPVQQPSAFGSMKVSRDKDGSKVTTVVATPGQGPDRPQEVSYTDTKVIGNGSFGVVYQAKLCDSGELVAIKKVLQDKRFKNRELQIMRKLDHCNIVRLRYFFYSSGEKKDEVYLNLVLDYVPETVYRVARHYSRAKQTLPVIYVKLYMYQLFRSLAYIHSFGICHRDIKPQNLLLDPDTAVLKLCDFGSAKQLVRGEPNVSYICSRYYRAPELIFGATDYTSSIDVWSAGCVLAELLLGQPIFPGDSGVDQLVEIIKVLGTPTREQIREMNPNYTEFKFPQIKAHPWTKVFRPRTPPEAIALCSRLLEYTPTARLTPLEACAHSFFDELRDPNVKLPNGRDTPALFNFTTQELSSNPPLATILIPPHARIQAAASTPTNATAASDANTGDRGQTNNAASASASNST
Description: (§1) The effect of test compounds on the activity of the protein kinases GSK-3β, VEGFR-2 and FLT-3 was evaluated based on half maximal inhibitory concentration (IC50) values determined by Eurofins Pharma Discovery Services UK Limited, Gemini Crescent, Dundee Technology Park, Dundee, DD2 1SW (KinaseProfiler™). Detailed information can be found at: http://www.eurofins.com/pharma-services/pharma-discovery-services/services/in-vitro-pharmacology/kinases/biochemical.aspx. The assays are also described in Biochem. J. (2013) 451, 313-328.

VEGFR-2 = target: T1, VEGFR-2 (Homo sapiens, UniProt P35968); assay: KinaseProfiler protein kinase inhibition, VEGFR-2; format: biochemical
T1 construct: purchased Eurofins Pharma Discovery Services UK Limited (KinaseProfiler)
T1 sequence (P35968 20-1356): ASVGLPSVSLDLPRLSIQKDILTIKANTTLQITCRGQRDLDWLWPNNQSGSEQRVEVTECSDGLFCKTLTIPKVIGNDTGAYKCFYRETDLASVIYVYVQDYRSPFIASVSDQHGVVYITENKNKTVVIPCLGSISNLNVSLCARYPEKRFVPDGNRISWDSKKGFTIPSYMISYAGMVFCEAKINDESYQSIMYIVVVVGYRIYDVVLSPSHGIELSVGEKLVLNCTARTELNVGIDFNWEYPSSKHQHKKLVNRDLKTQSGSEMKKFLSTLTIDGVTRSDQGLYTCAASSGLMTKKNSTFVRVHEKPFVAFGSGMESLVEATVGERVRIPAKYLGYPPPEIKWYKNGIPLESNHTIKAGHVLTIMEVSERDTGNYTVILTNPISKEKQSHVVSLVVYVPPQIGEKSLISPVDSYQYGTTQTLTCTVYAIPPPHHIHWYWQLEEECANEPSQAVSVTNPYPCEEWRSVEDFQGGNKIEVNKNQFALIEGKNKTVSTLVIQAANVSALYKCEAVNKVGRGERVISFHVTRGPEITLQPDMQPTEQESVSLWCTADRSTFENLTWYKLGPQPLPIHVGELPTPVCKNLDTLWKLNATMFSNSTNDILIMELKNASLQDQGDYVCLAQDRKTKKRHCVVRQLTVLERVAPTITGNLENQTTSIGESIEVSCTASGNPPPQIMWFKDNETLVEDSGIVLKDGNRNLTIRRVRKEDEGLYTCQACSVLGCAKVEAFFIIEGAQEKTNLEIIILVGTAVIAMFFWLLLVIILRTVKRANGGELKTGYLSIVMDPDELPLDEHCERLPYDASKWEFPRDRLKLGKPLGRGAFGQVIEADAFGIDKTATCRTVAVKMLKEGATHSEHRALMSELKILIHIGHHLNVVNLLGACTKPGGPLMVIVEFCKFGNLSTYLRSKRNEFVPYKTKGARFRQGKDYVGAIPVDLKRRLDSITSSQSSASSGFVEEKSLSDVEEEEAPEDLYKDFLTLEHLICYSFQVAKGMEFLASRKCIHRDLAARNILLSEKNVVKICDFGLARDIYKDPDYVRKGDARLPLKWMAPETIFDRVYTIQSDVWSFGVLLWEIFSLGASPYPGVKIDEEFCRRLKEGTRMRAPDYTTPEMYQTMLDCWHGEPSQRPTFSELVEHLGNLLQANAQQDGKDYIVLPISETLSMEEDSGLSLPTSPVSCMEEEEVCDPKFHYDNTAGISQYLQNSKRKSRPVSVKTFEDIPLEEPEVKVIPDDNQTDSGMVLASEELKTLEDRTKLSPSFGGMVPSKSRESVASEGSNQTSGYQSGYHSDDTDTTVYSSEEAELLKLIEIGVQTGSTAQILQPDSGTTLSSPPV
From the text: Detailed information can be found at: http://www.eurofins.com/pharma-services/pharma-discovery-services/services/in-vitro-pharmacology/kinases/biochemical.aspx. The assays are also described in Biochem. J. (2013) 451, 313-328.

FLT-3 = target: T2, FLT-3 (Homo sapiens, UniProt P36888); assay: KinaseProfiler protein kinase inhibition, FLT-3; format: biochemical
T2 construct: purchased Eurofins Pharma Discovery Services UK Limited (KinaseProfiler)
T2 sequence (P36888 27-993): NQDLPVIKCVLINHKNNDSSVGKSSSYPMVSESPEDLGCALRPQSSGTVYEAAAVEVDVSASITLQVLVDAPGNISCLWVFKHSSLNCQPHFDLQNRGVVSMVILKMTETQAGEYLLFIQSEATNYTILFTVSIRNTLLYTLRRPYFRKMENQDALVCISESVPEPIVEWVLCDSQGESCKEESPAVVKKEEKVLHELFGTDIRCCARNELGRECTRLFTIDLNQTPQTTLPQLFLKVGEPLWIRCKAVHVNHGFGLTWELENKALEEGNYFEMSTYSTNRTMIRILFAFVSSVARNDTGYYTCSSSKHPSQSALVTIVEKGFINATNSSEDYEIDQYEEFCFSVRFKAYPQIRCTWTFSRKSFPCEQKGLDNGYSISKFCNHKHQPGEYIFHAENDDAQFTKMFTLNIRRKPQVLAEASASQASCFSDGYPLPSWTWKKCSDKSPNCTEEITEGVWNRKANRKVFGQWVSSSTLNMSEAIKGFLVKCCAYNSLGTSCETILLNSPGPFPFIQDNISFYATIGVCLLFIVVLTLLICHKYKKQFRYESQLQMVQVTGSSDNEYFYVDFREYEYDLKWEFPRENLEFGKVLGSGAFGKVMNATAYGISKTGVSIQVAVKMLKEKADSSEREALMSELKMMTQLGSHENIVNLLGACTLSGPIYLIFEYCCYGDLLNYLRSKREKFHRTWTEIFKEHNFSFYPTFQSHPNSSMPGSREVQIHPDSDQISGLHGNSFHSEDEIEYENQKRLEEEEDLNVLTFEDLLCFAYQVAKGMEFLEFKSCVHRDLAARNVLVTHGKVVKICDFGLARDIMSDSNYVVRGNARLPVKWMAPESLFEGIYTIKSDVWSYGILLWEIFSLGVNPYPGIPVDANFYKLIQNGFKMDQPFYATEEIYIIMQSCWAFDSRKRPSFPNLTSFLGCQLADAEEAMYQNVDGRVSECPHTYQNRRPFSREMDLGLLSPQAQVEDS
Description: as §1

[2] = test system: HT-29 human colon adenocarcinoma cells; assay: MTT assay, antiproliferative activity; format: cell-based; conditions: HT-29 cells, 3 days exposure, FIG. 3
From the text: Each experiment was done in triplicate.

melting point: 180 °C
SMILES: COc1cc(C2=C(c3cn(CCOC(=O)C(N)CC(C)C)c4ccc(F)cc34)C(=O)NC2=O)cc(OC)c1OC (stereo not shown) (as salt: salt) [Ia, 2-(3-(2,5-Dioxo-4-(3,4,5-trimethoxyphenyl)-2,5-dihydro-1H-pyrrol-3-yl)-5-fluoro-1H-indol-1-yl)-ethyl-2-amino-4-methylpentanoate]

time until largely metabolized [1]: 1 h
SMILES: COc1cc(C2=C(c3cn(CCOC(=O)C(N)CC(C)C)c4ccc(F)cc34)C(=O)NC2=O)cc(OC)c1OC (stereo not shown) [Ia, 2-(3-(2,5-Dioxo-4-(3,4,5-trimethoxyphenyl)-2,5-dihydro-1H-pyrrol-3-yl)-5-fluoro-1H-indol-1-yl)-ethyl-2-amino-4-methylpentanoate]

IC50 (VEGFR-2): 79 nM | IC50 (FLT-3): 66 nM
SMILES: COc1cc(C2=C(c3cn(CCO)c4ccc(F)cc34)C(=O)NC2=O)cc(OC)c1OC [Ib, 3-(5-fluoro-1-(2-hydroxyethyl)-1H-indol-3-yl)-4-(3,4,5-trimethoxyphenyl)-maleimide]

melting point: 233 °C
SMILES: COc1cc(C2=C(c3cn(CCO)c4ccc(F)cc34)C(=O)NC2=O)cc(OC)c1O [Ic, 3-(5-fluoro-1-(2-hydroxyethyl)-1H-indol-3-yl)-4-(4-hydroxy-3,5-dimethoxyphenyl)-maleimide]

IC50 (VEGFR-2): 168 nM | IC50 (FLT-3): 84 nM
SMILES: COc1cc(C2=C(c3cn(CCCO)c4ccc(F)cc34)C(=O)NC2=O)cc(OC)c1OC [If, 3-(5-fluoro-1-(3-hydroxypropyl)-1H-indol-3-yl)-4-(3,4,5-trimethoxyphenyl)-maleimide]

More lines, now with the values behind:

SMILES: COc1cc(C2=C(c3cn(CCOC(=O)C(N)CC(C)C)c4ccccc34)C(=O)NC2=O)cc(OC)c1OC (stereo not shown) [IIa, reference compound]
time until largely metabolized [1]: 2 h

SMILES: COc1cc(C2=C(c3cn(CCCO)c4ccccc34)C(=O)NC2=O)cc(OC)c1OC [IIe]
IC50 (GSK-3β): 2 nM

SMILES: COc1cc(C2=C(c3c[nH]c4ccc(F)cc34)C(=O)NC2=O)cc(OC)c1O [Id, 3-(5-fluoro-1H-indol-3-yl)-4-(4-hydroxy-3,5-dimethoxyphenyl)-maleimide]
antiproliferative activity (viability) [2]: higher activity as compared to (IId)
